Where two headings read alike, the source gives them in different places. One block for each compound: values may come before it.
Key:
[1] = Metabolic stability in mouse liver microsomes; format: in vitro ADME; settings: for microsomal CLint: mouse, liver microsomes
Procedure: Metabolic stability of the compounds was also determined in mouse liver microsomes at five time points over 60 minutes, using HPLC-MS. Liver microsomes, as vesicles of the hepatocyte endoplasmic reticulum, contain membrane phase I enzymes namely CYPs, flavine-containing monooxygenases (FMO), esterases, amidases, and epoxide hydrolases, and also the phase II enzymes such as UGTs. For the catalytic activity of both phase I and II enzymes, addition of exogenous cofactors such as NADPH for CYPs and FMO, and UDPGA/alamethicin for UGTs is necessary.

U87MG Parent (Sensitive) = experiment: AlamarBlue cell viability, U87MG parent (TMZ sensitive); format: cell-based; settings: Homo sapiens, U-87 MG; 72 hours
Procedure: (§1) Cells were seeded in 96-well plates. The day after, cells were treated with various concentrations of temozolomide or TP3. Cell viability was measured by AlamarBlue™ cell viability reagent after 72 hours, considering the control level of cells to be 100%.

GBM8 = experiment: AlamarBlue cell viability, GBM8 patient-derived cell line; format: cell-based; settings: 72 h, read-out: IC50, 72 h
Procedure: (§2) The effect of selected compounds on glioma cells viability was determined. The cells were plated at 2000 cells/well in 96 well plates. The day after, cells were treated with various concentrations of temozolomide or VMY-TP analogs.

T98G cells = experiment: Cell Titer Glo viability of T98G cells with or without O6-BG pretreatment; format: cell-based; settings: Homo sapiens
Procedure: T98G cells, which express MGMT, were treated with TMZ or test compounds with or without 3, 6, or 24 hours of pretreatment with 100 μM of O^6-benzylguanine (O^6-BG; a pseudo-substrate of MGMT that quenches the cellular store of enzyme). T98G cell lysates were probed with anti-MGMT antibody and then with anti-a tubulin (FIG. 4). In a separate experiment, TMZ or test compounds were added to T98G cells with or without 5-6 hours of pretreatment with 100 μM O^6-BG. Cell viability was measured using the Cell Titer Glo assay after 3 days of incubation and IC50 values were determined (Table 3).

[2] = Pre-formulation testing: solubility, pH and stability in vehicles; format: physicochemical
Procedure: Two formulations for TP3 and TMZ were prepared (Tables 10 and 11). Pre-formulation testing was in volumes of 100 μl-250 μl, and should be confirmed with larger volumes. Mice were dosed at 20 mg/kg of TMZ and TP3 using formulation 2 orally and brain and plasma samples were collected at 0, 0.5, 1, 3, 6 and 12 h timepoints and the concentration was measured using LC-MS and calculate PK parameters using standard equation. The stability profile (FIGS. 9A and 9B) and release kinetics profiles (FIGS. 10A and 10B) were compared. Single dose oral brain to plasma pharmacokinetic parameters were determined with Formulation 2 (Table 12).

U251 Resistant = experiment: AlamarBlue cell viability, U251 TMZ resistant; format: cell-based; settings: Homo sapiens, U-251; 72 hours
Procedure: as §1

T98G = experiment: cells; settings: Homo sapiens, 72 h
Procedure: as §2
(§3) Activity of TP-RGD was assessed in glioma cell cultures, as described in Example 11.

U87 = experiment: cells; settings: Homo sapiens, U-87 MG, 72 h
Procedure: as §2, §3

U251 = experiment: cells; settings: Homo sapiens, U-251, 72 h
Procedure: as §2, §3

P-gp = experiment: Bidirectional Caco-2 permeability / P-gp efflux assay; format: in vitro ADME; settings: human; for Papp A→B: read-out: Papp (AB) p-gp Inhibitor (−); for Papp B→A: read-out: Papp (BA) p-gp Inhibitor (−)
Procedure: Permeability of the compounds was evaluated in the bidirectional Caco-2 assay including identification of P-glycoprotein substrate (Pgp-mediated transport). Verapamil was used as a p-gp inhibitor. The apparent permeability (Papp) was calculated using the following equation:
Papp=VA/Area×Time×[drug]acc/[drug]initial,d
Permeability of the compounds was evaluated in the bidirectional Caco-2 assay as described in Example 11 (Table 15).

[3] = BBB permeability, cassette intravenous dosing; format: in vivo, male CD-1 mice; settings: cassette IV 5 mg/kg; for % Brain / % Plasma: 5 min; for concentration at 5 min / Kp at 5 min: male, CD-1, mouse; for concentration at 5 min: 10% DMSO in PBS; for Kp at 5 min: brain/plasma
Procedure: BBB permeability of the compounds was tested in male CD-1@IGS mice using cassette intravenous dosing (Table 7 and FIGS. 6A and 6B). There were three animals in each group, given a dose of 5 mg/kg formulated in 10% DMSO in PBS (v/v) for 5 minutes. The endpoint was quantifying the parent compound using LC-MS/MS. Plasma samples (50 μl) were immediately mixed with 25 μl of H3PO4 (8.5%). Then 225 μl of internal standard (IS; 400 ng/ml meldonium in methanol) was added. After mixing by pipetting and centrifuging for 4 min at 6000 rpm, 2 μl of each supernatant was injected into LC-MS/MS system. Brain samples (100 mg±1 mg) were immediately mixed with 100 μl H3PO4 (25%) and zirconium oxide beads (115 mg±5 mg). Then 400 μl of IS solution was added and samples were disperse using a bullet blender homogenizer for 30 seconds at speed 8. The samples were centrifuged for 4 min at 14,000 rpm and 2 μl of each supernatant was injected into LC-MS/MS system.

U87MG Resistant = experiment: AlamarBlue cell viability, U87MG TMZ resistant; format: cell-based; settings: Homo sapiens, U-87 MG; 72 hours
Procedure: as §1

U251 Parent (Sensitive) = experiment: AlamarBlue cell viability, U251 parent (TMZ sensitive); format: cell-based; settings: Homo sapiens, U-251; 72 hours
Procedure: as §1

[4] = read-out: Intrinsic clearance (Clint)
[5] = 2.0 mg/mL in 10% DMA + 10% Tween 80 + 15% PEG 400 + 15% PG + 50% of 15% (w/v) Captisol
[6] = 2.0 mg/mL in 10% DMA + 10% Tween 80 + 15% PEG 400 + 15% PG + 50% of 25% (w/v) Captisol
[7] = 2.0 mg/mL in 10% DMA + 15% Solutol HS15 + 10% PEG 400 + 10% PG + 55% of 15% (w/v) Captisol
[8] = 4.0 mg/mL in 5% DMA + 10% Tween 80 + 10% PEG 400 + 10% PG + 65% of 50% (w/v) Captisol
[9] = 4.0 mg/mL in 10% DMA + 10% Tween 80 + 10% PEG 400 + 10% PG + 60% of 50% (w/v) Captisol
[10] = Caco-2, without verapamil, read-out: Efflux Ratio BA/AB p-gp Inhibitor (−)

Structure (SMILES): CCCCCCNC(=O)c1ncn2c(=O)n(C)nnc12 [TP3, N-hexyl-3-methyl-4-oxo-3,4-dihydroimidazo[5,1-d][1,2,3,5]tetrazine-8-carboxamide]
- microsomal CLint ([1]; read-out: Clearance Classification (Low <8.6; High >48)): > 48 µL/min/mg
- microsomal CLint [1, 4]: 358 µL/min/mg
- % remaining (1 h) With co-factors [1]: 0%
- % remaining (1 h) Without co-factors [1]: 80%
- IC50 (U87MG Parent (Sensitive)): 250 µM
- IC50 (GBM8): 2 µM
- IC50 (T98G cells; read-out: IC50 With O^6-BG pretreatment): 675 µM
- IC50 (T98G cells; read-out: IC50 Without O^6-BG pretreatment): 1050 µM
- Remarks (solubility) ([2]; 2.0 mg/mL in 5% DMA + 10% Tween 80 + 10% PEG 400 + 10% PG + 65% of 15% (w/v) Captisol): Not Soluble
- Remarks (solubility) ([2]; 2.0 mg/mL in 10% DMA + 10% Tween 80 + 10% PEG 400 + 10% PG + 60% Normal saline): Not Soluble
- pH ([2]; 2.0 mg/mL in 10% DMA + 10% Tween 80 + 10% PEG 400 + 10% PG + 60% of 15% (w/v) Captisol (100 μL)): ~6
- Remarks (solubility) ([2]; 2.0 mg/mL in 10% DMA + 10% Tween 80 + 10% PEG 400 + 10% PG + 60% of 15% (w/v) Captisol (100 μL, from 20 mg/mL DMA stock)): Soluble
- Remarks (solubility) ([2]; 2.0 mg/mL in 10% DMA + 10% Tween 80 + 10% PEG 400 + 10% PG + 60% of 15% (w/v) Captisol (250 μL)): Not Soluble
- Remarks (solubility) ([2]; 2.0 mg/mL in 10% DMA + 10% Tween 80 + 10% PEG 400 + 10% PG + 60% of 15% (w/v) HPβCD): Not Soluble
- Remarks (solubility) [2, 5]: Soluble
- pH [2, 5]: ~6
- Remarks (solubility) [2, 6]: Soluble
- pH [2, 6]: ~6
- Remarks (solubility) [2, 7]: Soluble
- Remarks (solubility) [2, 8]: Soluble
- pH [2, 8]: ~6
- Remarks (solubility) ([2]; 4.0 mg/mL in 5% DMA + 10% Tween 80 + 10% PEG 400 + 10% PG + 65% of 50% (w/v) HPβCD): Not Soluble
- Remarks (solubility) ([2]; 4.0 mg/mL in 10% DMA + 5% Tween 80 + 15% PEG 400 + 15% PG + 50% of 25% (w/v) Captisol): Not Soluble
- Remarks (solubility) ([2]; 4.0 mg/mL in 10% DMA + 5% Tween 80 + 85% Normal saline): Not Soluble
- Remarks (solubility) ([2]; 4.0 mg/mL in 10% DMA + 10% Tween 80 + 10% PEG 400 + 10% PG + 60% Normal saline): Not Soluble
- Remarks (solubility) [2, 9]: Soluble
- pH [2, 9]: ~6
- Remarks (solubility) ([2]; 4.00 mg/mL in 25% of DMSO + 75% Normal Saline): Not Soluble
- Stability (0-4 h) ([2]; Formulation 2, 2 mg/ml): Stable
- pH ([2]; Formulation 2, 2 mg/ml): 4.81
- Stability (0-4 h) ([2]; Formulation 3, 2 mg/ml): Stable
- pH ([2]; Formulation 3, 2 mg/ml): 5.66
- IC50 (U251 Resistant): 63 µM
- IC50 (T98G; read-out: IC50, 72 h): 1260 µM
- IC50 (U87; read-out: IC50, 72 h): 399 µM
- IC50 (U251; read-out: IC50, 72 h): 397 µM
- efflux ratio (P-gp; [10]): 0.6
- Papp A→B (P-gp; Caco-2, without verapamil): 30.7 ×10⁻⁶ cm/s
- Papp B→A (P-gp; Caco-2, without verapamil): 17 ×10⁻⁶ cm/s
- % Brain [3]: 20%
- % Plasma [3]: 80%
- concentration at 5 min ([3]; brain, read-out: Brain Conc.): 2080 ng/g
- Kp at 5 min [3]: 0.71
- concentration at 5 min ([3]; plasma, read-out: Plasma Conc): 2920 ng/mL
- IC50 (U87MG Resistant): 280 µM
- IC50 (U251 Parent (Sensitive)): 71 µM

- Clearance Classification (Low <8.6; High >48) [1]: Moderate
- microsomal CLint [1, 4]: 15 µL/min/mg
- % remaining (1 h) With co-factors [1]: 65%
- % remaining (1 h) Without co-factors [1]: 72%
- IC50 (U87MG Parent (Sensitive)): 310 µM
- Remarks (solubility) [2, 7]: Soluble
- Stability (0-4 h) ([2]; Formulation 2, 2 mg/ml): Stable
- Stability (0-4 h) ([2]; Formulation 3, 2 mg/ml): Stable
- IC50 (U251 Resistant): 180 µM
- IC50 (T98G; read-out: IC50, 72 h, T98G, MGMT +++, Table 14): > 600 µM
- IC50 (T98G; read-out: IC50, 72 h, T98G, MGMT +, Table 2): 1140 µM
- IC50 (U87; read-out: IC50, 72 h, U87, MGMT −, Table 2): 208 µM
- IC50 (U87; read-out: IC50, 72 h, U87MG, MGMT −, Table 14): 440 µM
- IC50 (U251; read-out: IC50, 72 h, U251, MGMT −, Table 2): 898 µM
- IC50 (U251; read-out: IC50, 72 h, U251, MGMT −, Table 14): 383 µM
- efflux ratio (P-gp; Caco-2, Caco-2 permeability, P-gp efflux ratio, Table 15, read-out: Efflux Ratio): 1.04
- efflux ratio (P-gp; [10]): 1
- Papp A→B (P-gp; Caco-2, without verapamil): 20.2 ×10⁻⁶ cm/s
- Papp B→A (P-gp; Caco-2, without verapamil): 21 ×10⁻⁶ cm/s
- % Brain [3]: 7%
- % Plasma [3]: 93%
- concentration at 5 min ([3]; brain, read-out: Brain Conc.): 1290 ng/g
- Kp at 5 min [3]: 0.23
- concentration at 5 min ([3]; plasma, read-out: Plasma Conc): 5540 ng/mL
- IC50 (U87MG Resistant): > 1000 µM
- IC50 (U251 Parent (Sensitive)): 70 µM
Structure (SMILES): Cn1nnc2c(C(N)=O)ncn2c1=O [TMZ, temozolomide]
- IC50 (GBM8; GBM8, MGMT −, Table 2): 45 µM
- IC50 (T98G cells; 5-6 h pretreatment with 100 μM O6-BG, 3 days, read-out: IC50 With O^6-BG pretreatment): > 1000 µM
- IC50 (T98G cells; 3 days, read-out: IC50 Without O^6-BG pretreatment): > 1000 µM

— US20230303577A1, “TEMOZOLOMIDE ANALOGS AND METHODS OF USE” (St. John's Cancer Institute, priority 2020, published 2023)
